{
  "source": "patent US8076489B2",
  "about": "“5-hydroxy-benzothiazole derivatives having beta-2-adrenoreceptor agonist activity” (Novartis AG, priority 2004, dated 2011)",
  "key": {"β2-adrenoreceptor": {"molecular_target": "β2-adrenoreceptor (Homo sapiens, UniProt P07550)", "sequence (P07550 whole entry, species assumed)": "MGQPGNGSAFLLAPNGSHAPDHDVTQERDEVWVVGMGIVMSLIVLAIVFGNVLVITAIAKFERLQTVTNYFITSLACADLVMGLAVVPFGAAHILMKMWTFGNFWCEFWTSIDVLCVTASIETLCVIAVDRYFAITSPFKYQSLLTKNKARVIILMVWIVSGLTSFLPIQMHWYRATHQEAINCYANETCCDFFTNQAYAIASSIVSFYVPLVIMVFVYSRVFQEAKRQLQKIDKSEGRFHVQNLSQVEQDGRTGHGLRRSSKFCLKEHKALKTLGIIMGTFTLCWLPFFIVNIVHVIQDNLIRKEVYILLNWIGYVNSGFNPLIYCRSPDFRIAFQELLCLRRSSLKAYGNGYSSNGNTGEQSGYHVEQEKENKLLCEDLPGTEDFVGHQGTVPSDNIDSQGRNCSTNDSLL", "experiment": "classical filtration binding assay, β2 binding potency", "description": "(§1) Compounds of formulae IX are known or may be prepared using procedures that are known or are analogous to those hereinafter described in the Examples. Compounds of formula I in free, salt or solvate form are useful as pharmaceuticals. Accordingly the invention also provides a compound of formula I in free, salt or solvate form for use as a pharmaceutical. The compounds of formula I in free, salt or solvate form, hereinafter referred to alternatively as “agents of the invention”, have good β2-adreno-receptor agonist activity. The β2 agonist activity, onset of action and duration of action of the agents of the invention may be tested using the guinea pig tracheal strip in vitro assay according to the procedure of R. A. Coleman and A. T. Nials, J. Pharmacol. Methods 1989, 21, 71. The binding potency and selectivity for the β2-adrenoreceptor relative to the β1-adrenoreceptor can be measured by a classical filtration binding assay according to the procedure of Current Protocols in Pharmacology (S. J. Enna (editor-in-chief) et al, John Wiley & Son, Inc, 1998), or by cAMP determination in cells expressing β2- or β1-adreno-ceptor, according to the procedure of B. January et al, Brit. J. Pharmacol. 1998, 123, 701.\nMany of the compounds have binding selectivities for the β2-adrenoreceptor relative to the β1-adrenoreceptor from 1.5 to 500."}, "[1]": {"tested_on": "guinea pig tracheal strip", "experiment": "guinea-pig tracheal strip in vitro assay (duration of action)", "format": "cell-based", "description": "as §1"}, "[2]": {"details": "classical filtration binding assay, read-out: β2 binding potency, Ki"}},
  "note": "Like-named read-outs stand apart in the source and are kept apart here.",
  "data": [
    {"molecule": "CC(CCc1ccccc1)NCC(O)c1cc(O)cc2[nH]c(=O)sc12", "note": "(stereo not shown) [Example 9]", "values": [
      {"measurement": "Ki", "setting": "β2-adrenoreceptor; [2]", "result": 0.016, "unit": "µM"}
    ]},
    {"molecule": "CN(C)c1ccc(CC(C)(C)NC[C@@H](O)c2cc(O)cc3[nH]c(=O)sc23)cc1", "note": "[Example 18, (S)-7-{2-[2-(4-Dimethylamino-phenyl)-1,1-dimethyl-ethylamino]-1-hydroxy-ethyl}-5-hydroxy-3H-benzothiazol-2-one]", "values": [
      {"measurement": "T(50%) time for inhibition of contraction to decay to 50% of its maximum value", "setting": "[1]; 10 nM concentration", "result": 595, "unit": "min"}
    ]},
    {"molecule": "O=c1[nH]c2cc(O)cc(C(O)CNC3CCCC3C3CCCC3)c2s1", "note": "(stereo not shown) [Example 14]", "values": [
      {"measurement": "Ki", "setting": "β2-adrenoreceptor; [2]", "result": 0.056, "unit": "µM"}
    ]},
    {"molecule": "CC(C)(Cc1ccccc1)NC[C@H](O)c1cc(O)cc2[nH]c(=O)sc12", "note": "[Example 1, (R)-7-[2-(1,1-Dimethyl-2-phenyl-ethylamino)-1-hydroxy-ethyl]-5-hydroxy-3H-benzothiazol-2-one]", "values": [
      {"measurement": "T(50%) time for inhibition of contraction to decay to 50% of its maximum value", "setting": "[1]; 100 nM concentration", "result": "> 672", "unit": "min"}
    ]},
    {"molecule": "CC(NCC(O)c1cc(O)cc2[nH]c(=O)sc12)C1CCCCC1", "note": "(stereo not shown) [Example 2]", "values": [
      {"measurement": "Ki", "setting": "β2-adrenoreceptor; [2]", "result": 0.061, "unit": "µM"}
    ]},
    {"molecule": "O=c1[nH]c2cc(O)cc(C(O)CNC3CCCC3OCc3ccccc3)c2s1", "note": "(stereo not shown) [Example 17]", "values": [
      {"measurement": "Ki", "setting": "β2-adrenoreceptor; [2]", "result": 0.002, "unit": "µM"}
    ]},
    {"molecule": "CCCCOc1ccc(CC(C)(C)NCC(O)c2cc(O)cc3[nH]c(=O)sc23)cc1", "note": "(stereo not shown) [Example 4]", "values": [
      {"measurement": "Ki", "setting": "β2-adrenoreceptor", "result": 0.027, "unit": "µM"}
    ]}
  ]
}
